Laboratory results from article PMC8252068, “Biochemical Investigation of the Interaction of pICln, RioK1 and COPR5 with the PRMT5–MEP50 Complex” (Chembiochem, 2021).
Where two headings read alike, the source gives them in different places. Where a SMILES comes first, the peptide text is derived from it. The star is where a group is joined. FITC = O=C1OC2(c3ccc(O)cc3Oc3cc(O)ccc32)c2ccc(NC(=S)*)cc21; AEEA = NCCOCCOCC(=O)O

Experiments:
[1] = target: T1, native PRMT5–MEP50 complex (Homo sapiens, UniProt O14744+Q9BQA1); test: Fluorescence polarisation direct binding assay, full-length PRMT5–MEP50; details: 20-21 °C, n=3
T1 construct: Full‐length PRMT5–MEP50; 6His-MBP with 3C site (N, cleaved yes); made in house; host or cells: HighFive insect cells (flashBAC baculovirus system)
Text: (§1) All proteins were expressed at the Protein Chemistry Facility (PCF) based in the MPI Dortmund.
For expression of the proteins, all constructs were subcloned into pOPIN vectors. […]
(§2) Expression of full-length human RioK1 tagged with 6NHis-3C and co-expression of full-length human PRMT5 (N-terminal 6His-MBP with 3C) with MEP50 (N-terminal 6His-TRX with 3C), and of TIM barrel (1-292 aa) with MEP50 (both N-terminally tagged with His-TRX with 3C cleavage site) was done using the Flash Bac Expression System (Oxford Expression Technologies, UK) with HighFive insect cells in Gibco Sf-900 III SFM medium. The cells were harvested by centrifugation and lysed.
(§3) All proteins were purified at the PCF (MPI Dortmund).
(§4) Protein purification was performed on HisTrap FF crude 5 ml Ni-based column, followed by the on-column treatment with 6His-tagged HRV-3C PreScission protease, or in case of the SUMO-tagged TIM barrel, with 6His-tagged SUMO protease. The cleaved proteins were then further purified using gel filtration chromatography with the HiLoad 26/60 Superdex 75 or 200 prep grade column. PRMT5 -MEP50, TIM-MEP50 and TIM barrel were stored in a buffer containing 50 mM HEPES, 250 mM NaCl, 1 mM TCEP with the pH adjusted to 8.0, whereas, pICln was stored in a buffer of 20 mM phosphate, 100 mM NaCl, 5 mM TCEP and pH of 7.5, whereas RioK1 was stored in a buffer of 50 mM Tris, 200 mM NaCl, 10% glycerol, 1 […]
(§5) Protein Labelling with Alexa 488
(§6) To a protein solution (ca. 1 mg/ml) in 0.2 M bicarbonate buffer with 1 mM TCEP at pH 8.3, was added 10 mM Alexa 488 NHS-ester in DMSO (8 equiv), and the mixture was kept on ice, in darkness, overnight. The protein was washed eight times with buffer (50 mM HEPES, 250 mM NaCl, 1 mM TCEP, 8.0 pH) using an Amicon® Ultra-0.5 mL spin filter. Protein concentration was then determined using the NanoDrop […]
(§7) Fluorescence Polarisation (FP)
(§8) The assay was performed in a buffer of 50 mM HEPES, 250 mM NaCl, 1 mM TCEP, 0.01% (v/v) Tween 20, pH 8.0, in black, 384 well-plates, with a total volume of 10 μl per well. The analysed, FITC labelled peptides, or Alexa488-labelled pICln or RioK1, were tested at a final concentration of 1 nM, and the appropriate unlabelled protein was titrated as two-fold dilution series. The plates were incubated at 20-21 °C for 30 min in case of FITC -labelled peptides or 1-2h in case of the Alexa488-labelled protein, and analysed on a plate reader using 485 nm excitation and 535 nm emission wavelength. The assay was performed in […]

[2] = target: T2, TIM barrel domain of PRMT5 (residues 1–292) (Homo sapiens, UniProt O14744); test: Fluorescence polarisation direct binding assay, isolated TIM barrel
T2 construct: barrel domain (1-292 aa) of human PRMT5, N-terminally tagged with 6His-SUMO; 6His-SUMO (N, cleaved yes); made in house; host or cells: Escherichia coli BL21 CodonPlus (DE3) RIPL
Experimental: as §1
(§9) For expression of the proteins, all constructs were subcloned into pOPIN vectors.
Full-length human pICln, N-terminally tagged with 6His-TRX followed by the 3C cleavage site, and TIM barrel domain (1-292 aa) of human PRMT5, N-terminally tagged with 6His-SUMO, were expressed in BL21 CodonPlus (DE3) RIPL strain of Escherichia coli. Bacteria with the respective plasmids were cultured in Terrific Broth medium. Expression of TIM barrel was auto-induced, with incubation of the starter-culture (starting OD of ~0.05) at 35 °C for 2.5h, followed by an overnight incubation (20 -24h) at 25 °C. Expression of pICln was induced at OD ~0.6-0.8 using 0.3 mM IPTG and E. coli was incubated at 20 °C for 20h. Bacteria were harvested by centrifugation and lysed. […]
To a protein solution (ca. 1 mg/ml) in 0.2 M bicarbonate buffer with 1 mM TCEP at pH 8.3, was added 10 mM Alexa 488 NHS-ester in DMSO (8 equiv), and the mixture was kept on ice, in darkness, overnight. […] Protein concentration was then determined using the NanoDrop […]
as §7
as §8, with “wavelength.” for “wavelength. The assay was performed in”

[3] = target: T3, TIM–MEP50 complex (PRMT5 residues 1–292 co-expressed with MEP50) (Homo sapiens, UniProt O14744+Q9BQA1); test: Fluorescence polarisation direct binding assay, TIM–MEP50; details: 20-21 °C, n=3
T3 construct: truncated PRMT5 protein (residues 1–292), corresponding to the TIM barrel domain, was either expressed alone or co‐expressed as a complex with MEP50; His-TRX with 3C cleavage site (N, cleaved yes); made in house; host or cells: HighFive insect cells (flashBAC baculovirus system)
Experimental: as §1, §9
Full-length human pICln, N-terminally tagged with 6His-TRX followed by the 3C cleavage site, and TIM barrel domain (1-292 aa) of human PRMT5, N-terminally tagged with 6His-SUMO, were expressed in BL21 CodonPlus (DE3) RIPL strain of Escherichia coli. Bacteria with the respective plasmids were cultured in Terrific Broth medium. Expression of TIM barrel was auto-induced, with incubation of the starter-culture (starting OD of ~0.05) at 35 °C for 2.5h, followed by an overnight incubation (20 -24h) at 25 °C. Expression of pICln was induced at OD ~0.6-0.8 using 0.3 mM IPTG and E. coli was incubated at 20 °C for 20h. Bacteria were harvested by centrifugation and lysed.
as §2, §3, §4, §5, §6, §7, §8

PRMT5–MEP50 = target: T4, PRMT5–MEP50 (Homo sapiens, UniProt O14744+Q9BQA1); test: Flow induced dispersion analysis (FIDA), PRMT5–MEP50; assay type: binding; details: technical triplicate
T4 construct: Full‐length PRMT5–MEP50; 6His-MBP with 3C site (N, cleaved yes); made in house; host or cells: HighFive insect cells (flashBAC baculovirus system)
Experimental: (§10) Nucleodur C18 Gravity column, with a flow rate of 0.56 ml/min, and the samples obtained from the stability assay were tested using 125 mm x 3 mm, 5 μm Macherey-Nagel Nucleodur C4 Gravity at a flow rate of 1 ml/min, in both cases using elution system: 5% → 65% MeCN (0.1% TFA) in H2O (0.1% TFA) over 14 min. HRMS analyses were performed on a LTQ Orbitrap mass spectrometer (Thermo Fisher Scientific, USA) using electrospray ionization. Concentrations of PRMT5 -MEP50, TIM -MEP50 and TIM were measured with the Bradford assay, using Protein Assay Dye Reagent from Bio -Rad (Cat. #500-0006; Bio- […]

TIM–MEP50 = target: T5, TIM–MEP50 (Homo sapiens, UniProt O14744+Q9BQA1); test: Flow induced dispersion analysis (FIDA), TIM–MEP50; assay type: binding; details: technical triplicate
T5 construct: truncated PRMT5 protein (residues 1–292), corresponding to the TIM barrel domain, was either expressed alone or co‐expressed as a complex with MEP50; His-TRX with 3C cleavage site (N, cleaved yes); made in house; host or cells: HighFive insect cells (flashBAC baculovirus system)
Experimental: as §10

[4] = FP using the native PRMT5–MEP50 complex, FITC peptide 1 nM, pH 8.0, 30 min, n.b. = no binding, read-out: K D (Table 2, peptides 1–16)
[5] = FP direct binding, FITC peptide 1 nM, protein titrated, HEPES buffer pH 8.0, 30 min, n.b. = no binding, read-out: K D value, TIM–MEP50

T2 sequence (O14744 1-292): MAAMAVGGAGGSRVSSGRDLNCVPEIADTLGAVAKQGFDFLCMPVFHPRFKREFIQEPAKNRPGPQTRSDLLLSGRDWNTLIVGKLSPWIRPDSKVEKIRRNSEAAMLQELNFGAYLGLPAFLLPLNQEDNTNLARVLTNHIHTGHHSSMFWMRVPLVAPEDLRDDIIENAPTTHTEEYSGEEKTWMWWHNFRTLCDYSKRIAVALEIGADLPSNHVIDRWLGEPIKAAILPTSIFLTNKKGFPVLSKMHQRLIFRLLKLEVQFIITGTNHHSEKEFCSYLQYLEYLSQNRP
T3 sequence (O14744 1-292): as above
T3 sequence (Q9BQA1 whole entry partner, the tested form may be a part): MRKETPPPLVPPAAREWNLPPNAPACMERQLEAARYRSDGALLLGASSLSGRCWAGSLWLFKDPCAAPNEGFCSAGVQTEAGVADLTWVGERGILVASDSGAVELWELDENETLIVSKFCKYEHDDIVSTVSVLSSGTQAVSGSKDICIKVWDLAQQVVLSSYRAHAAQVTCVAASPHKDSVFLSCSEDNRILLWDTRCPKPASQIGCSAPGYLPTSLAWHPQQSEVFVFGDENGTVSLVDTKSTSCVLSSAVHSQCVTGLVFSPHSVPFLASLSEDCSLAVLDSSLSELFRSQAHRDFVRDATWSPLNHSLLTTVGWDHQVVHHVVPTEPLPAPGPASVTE
T1 sequence (O14744 whole entry): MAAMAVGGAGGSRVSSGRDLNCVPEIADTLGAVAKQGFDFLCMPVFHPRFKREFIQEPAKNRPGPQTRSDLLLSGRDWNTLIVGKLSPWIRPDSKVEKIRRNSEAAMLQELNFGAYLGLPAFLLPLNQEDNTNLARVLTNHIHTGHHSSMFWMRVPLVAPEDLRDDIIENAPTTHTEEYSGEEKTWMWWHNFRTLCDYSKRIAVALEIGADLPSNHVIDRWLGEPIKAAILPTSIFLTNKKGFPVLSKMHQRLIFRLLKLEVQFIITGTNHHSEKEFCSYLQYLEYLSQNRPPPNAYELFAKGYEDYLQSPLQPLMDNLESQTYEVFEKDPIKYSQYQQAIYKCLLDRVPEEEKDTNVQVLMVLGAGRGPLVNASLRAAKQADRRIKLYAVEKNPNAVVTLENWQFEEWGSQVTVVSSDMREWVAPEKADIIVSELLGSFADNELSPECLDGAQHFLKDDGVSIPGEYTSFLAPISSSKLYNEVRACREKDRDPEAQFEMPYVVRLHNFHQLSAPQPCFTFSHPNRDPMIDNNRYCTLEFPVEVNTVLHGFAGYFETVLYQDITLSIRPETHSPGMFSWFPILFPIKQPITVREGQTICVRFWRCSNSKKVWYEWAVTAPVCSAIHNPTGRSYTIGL
T1 sequence (Q9BQA1 whole entry partner): as the sequence (Q9BQA1 whole entry partner, the tested form may be a part) above
T5 sequence (O14744 1-292): as the sequence (O14744 1-292) above
T5 sequence (Q9BQA1 whole entry partner, the tested form may be a part): as the sequence (Q9BQA1 whole entry partner, the tested form may be a part) above
T4 sequence (O14744 whole entry): as the sequence (O14744 whole entry) above
T4 sequence (Q9BQA1 whole entry partner): as the sequence (Q9BQA1 whole entry partner, the tested form may be a part) above

| Molecule | Kd [1, 4] [nM] | Kd [2] [nM] | Kd [3, 5] [nM] | also measured |
| --- | --- | --- | --- | --- |
| CC(C)[C@H](NC(=O)[C@H](CCCNC(=N)N)NC(=O)[C@H](CO)NC(=O)COCCOCCNC(=S)Nc1ccc2c(c1)C(=O)OC21c2ccc(O)cc2Oc2cc(O)ccc21)C(=O)N[C@H](C(=O)N1CCC[C@H]1C(=O)NCC(=O)N[C@@H](CCC(N)=O)C(=O)N[C@@H](Cc1ccccc1)C(=O)N[C@@H](CC(=O)O)C(=O)N[C@@H](CC(=O)O)C(=O)N[C@@H](C)C(=O)N[C@@H](CC(=O)O)C(N)=O)C(C)C [compound 1] ({FITC-AEEA}-SRVVPGQFDDAD-NH2) | 522 ± 45 | 2800 ± 70 | 840 ± 150 |  |
| CC(C)[C@H](NC(=O)[C@@H](NC(=O)[C@@H]1CCCN1C(=O)[C@@H](NC(=O)COCCOCCNC(=S)Nc1ccc2c(c1)C(=O)OC21c2ccc(O)cc2Oc2cc(O)ccc21)[C@@H](C)O)[C@@H](C)O)C(=O)N[C@@H](C)C(=O)NCC(=O)N[C@@H](CCC(N)=O)C(=O)N[C@@H](Cc1ccccc1)C(=O)N[C@@H](CCC(=O)O)C(=O)N[C@@H](CC(=O)O)C(=O)N[C@@H](C)C(=O)N[C@@H](CC(=O)O)C(N)=O [compound 2] ({FITC-AEEA}-TPTVAGQFEDAD-NH2) | 1140 ± 38 | 5800 ± 110 | 2100 ± 150 |  |
| CSCC[C@H](NC(=O)COCCOCCNC(=S)Nc1ccc2c(c1)C(=O)OC21c2ccc(O)cc2Oc2cc(O)ccc21)C(=O)N[C@H](C(=O)N[C@@H](Cc1ccccc1)C(=O)N[C@@H](CCC(=O)O)C(=O)N[C@H](C(=O)NCC(=O)N[C@@H](CCC(N)=O)C(=O)N[C@@H](Cc1ccccc1)C(=O)N[C@@H](CC(=O)O)C(=O)N[C@@H](CC(=O)O)C(=O)N[C@@H](C)C(=O)N[C@@H](CCC(=O)O)C(=O)N[C@@H](CC(=O)O)C(N)=O)[C@@H](C)O)C(C)C [compound 3] ({FITC-AEEA}-MVFETGQFDDAED-NH2) | 549 ± 119 | 2400 ± 320 | 460 |  |
| pICln-Alexa488: full-length human pICln labelled with the fluorescent dye Alexa488 |  |  |  | Kd (PRMT5–MEP50; Supplement Table S4, indicator 10 nM, 25 °C, read-out: Affinity constant, PRMT5-MEP50 (Table S4, FIDA)): 39.3 nM; Kd (PRMT5–MEP50; indicator (Alexa488-labelled protein) 10 nM, HEPES buffer pH 8.0, 0.01% Tween 20, 25 °C, read-out: K D for PRMT5–MEP50 (FIDA)): 39.3 nM; Kd (TIM–MEP50; Supplement Table S4, indicator 10 nM, 25 °C, read-out: Affinity constant, TIM-MEP50 (Table S4, FIDA)): 64.1 nM; Kd (TIM–MEP50; indicator (Alexa488-labelled protein) 10 nM, HEPES buffer pH 8.0, 0.01% Tween 20, 25 °C, read-out: K D for TIM–MEP50 (FIDA)): 64.1 nM; Kd ([1]; FP, Alexa488-labelled protein 1 nM, unlabelled complex titrated, pH 8.0, 1-2h, read-out: K D of Alexa488-labelled adaptor protein for PRMT5–MEP50 (FP)): 9.1 ± 1.5 nM; Kd ([3]; FP, Alexa488-labelled protein 1 nM, unlabelled complex titrated, pH 8.0, 1-2h, read-out: K D of Alexa488-labelled adaptor protein for TIM–MEP50 (FP)): 4.1 ± 0.6 nM |
| Fitc‐O2Oc‐PTVAGQF‐NH2 [compound 4, DAB1 derived, fluorescently labelled linear peptide] |  |  |  | K D value, Full‐length PRMT5–MEP50 ([1]; FP direct binding, FITC peptide 1 nM, protein titrated two-fold, 50 mM HEPES, 250 mM NaCl, 1 mM TCEP, 0.01% Tween 20, pH 8.0, 30 min, n.b. = no binding): did not have affinity and n.b.; K D (Table 2, peptides 1–16) ([1]; FP using the native PRMT5–MEP50 complex, FITC peptide 1 nM, pH 8.0, 30 min, n.b. = no binding): n.b.; K D value, TIM–MEP50 ([3]; FP direct binding, FITC peptide 1 nM, protein titrated, HEPES buffer pH 8.0, 30 min, n.b. = no binding): did not have affinity and n.b. |
